Data reported in patent publication EP0357369B1, “The use of asymetric membranes in delivery devices” (priority 1988, dated 1990).
Values after ≈ are worked out from the molar mass of the structure shown. Like-named read-outs stand apart in the source and are kept apart here.

Experiments:
[1] = Osmotic pressure of saturated solutions of drug and excipients; format: physicochemical; details: saturated solution of the labelled drug or of drug and the other tablet excipients; also printed as about 3 atm
[2] = Drug solubility in receptor solutions and excipient solutions; format: physicochemical

## COc1cc2c(N)nc(N3CCN(C(=O)OCC(C)(C)O)CC3)nc2c(OC)c1OC [trimazosin]
[1]
  osmotic pressure of a saturated solution: about 304 kPa
[2]
  Trimazosin solubility lower in a saturated calcium lactate solution than in water: about 40%
[2]; 2.4-wt% magnesium sulfate solution compared with water
  solubility of trimazosin in the magnesium sulfate solution: the same as the trimazosin solubility in water
[2]; water and 4 wt% magnesium sulfate solution
  solubility of trimazosin: the same in both solutions

## COc1cc2nc(N3CCN(C(=O)C4COc5ccccc5O4)CC3)nc(N)c2cc1OC (centres unmarked) [doxazosin]
[2]; aqueous buffer, gastric buffer pH 1.5, read-out: Doxazosin solubility in the gastric buffer
  solubility: ~250 µg/mL (≈ 0.554 mM)
[2]; aqueous buffer, intestinal buffer pH 7.5, read-out: Doxazosin solubility in the intestinal buffer
  solubility: < 10 µg/mL
[2]; dextrose solutions adjusted to pH 4 with tartaric acid, read-out: doxazosin solubility in all the dextrose solutions
  solubility: ~10000 µg/mL (≈ 22.1 mM)
[2]; water, same in lactose and dextrose solutions adjusted to pH 4 with tartaric acid, read-out: doxazosin solubility in water
  solubility: 10000 µg/mL (≈ 22.1 mM)
